# Test results as given in ChEMBL document CHEMBL5291721, “A preclinical secondary pharmacology resource illuminates target-adverse drug reaction associations of marketed drugs” (Nat Commun, 2023).
# Tests used:
# [1] = target: Voltage-dependent L-type calcium channel subunit alpha-1C (Rattus norvegicus, UniProt P22002); assay type: functional
# [2] = target: T1, Alpha-1A adrenergic receptor (Homo sapiens, UniProt P35348); assay type: functional, cell-based
# T1 sequence (P35348 whole entry): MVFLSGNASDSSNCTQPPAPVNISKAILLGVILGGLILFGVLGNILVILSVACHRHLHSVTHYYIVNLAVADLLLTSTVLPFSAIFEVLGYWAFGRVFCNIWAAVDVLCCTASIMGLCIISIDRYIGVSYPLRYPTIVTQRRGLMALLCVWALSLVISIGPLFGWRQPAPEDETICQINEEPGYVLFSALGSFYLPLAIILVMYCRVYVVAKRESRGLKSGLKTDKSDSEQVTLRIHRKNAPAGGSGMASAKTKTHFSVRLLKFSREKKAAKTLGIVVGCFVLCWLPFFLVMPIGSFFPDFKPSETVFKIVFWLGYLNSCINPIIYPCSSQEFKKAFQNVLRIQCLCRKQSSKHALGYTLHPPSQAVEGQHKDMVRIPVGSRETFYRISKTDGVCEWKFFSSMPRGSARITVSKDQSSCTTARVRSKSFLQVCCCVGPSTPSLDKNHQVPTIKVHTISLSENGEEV
# [3] = target: Gamma-aminobutyric acid receptor subunit alpha-1 (Rattus norvegicus, UniProt P62813)
# Chain of Gamma-aminobutyric acid receptor subunit alpha-1 (P62813 whole entry): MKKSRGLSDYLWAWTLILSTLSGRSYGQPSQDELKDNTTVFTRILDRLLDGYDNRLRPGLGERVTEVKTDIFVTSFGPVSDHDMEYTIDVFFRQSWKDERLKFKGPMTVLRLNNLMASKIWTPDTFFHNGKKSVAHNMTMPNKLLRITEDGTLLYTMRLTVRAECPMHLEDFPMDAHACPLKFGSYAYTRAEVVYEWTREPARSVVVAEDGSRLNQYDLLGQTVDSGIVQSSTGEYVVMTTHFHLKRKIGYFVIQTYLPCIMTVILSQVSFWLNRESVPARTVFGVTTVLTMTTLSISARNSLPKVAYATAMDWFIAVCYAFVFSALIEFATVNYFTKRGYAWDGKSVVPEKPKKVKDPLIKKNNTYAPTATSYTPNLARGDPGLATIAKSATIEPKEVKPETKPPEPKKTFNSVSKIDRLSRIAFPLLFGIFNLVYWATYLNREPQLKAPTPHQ
# [4] = target: T2, Neuropeptide Y receptor type 1 (Homo sapiens, UniProt P25929)
# T2 sequence (P25929 whole entry): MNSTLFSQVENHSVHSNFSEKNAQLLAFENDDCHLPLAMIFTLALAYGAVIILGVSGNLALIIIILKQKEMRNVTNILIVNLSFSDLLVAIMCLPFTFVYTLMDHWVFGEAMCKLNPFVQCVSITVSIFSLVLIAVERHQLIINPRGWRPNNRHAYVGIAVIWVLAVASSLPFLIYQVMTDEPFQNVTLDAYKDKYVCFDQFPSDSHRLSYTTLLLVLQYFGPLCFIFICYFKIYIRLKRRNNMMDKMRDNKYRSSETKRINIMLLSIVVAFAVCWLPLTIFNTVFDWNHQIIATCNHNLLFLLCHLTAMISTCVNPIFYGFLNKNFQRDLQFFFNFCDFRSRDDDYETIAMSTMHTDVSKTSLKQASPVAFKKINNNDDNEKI
# [5] = target: 3',5'-cyclic-AMP phosphodiesterase 4A (Homo sapiens, UniProt P27815); assay type: functional
# Chain of 3',5'-cyclic-AMP phosphodiesterase 4A (P27815 whole entry): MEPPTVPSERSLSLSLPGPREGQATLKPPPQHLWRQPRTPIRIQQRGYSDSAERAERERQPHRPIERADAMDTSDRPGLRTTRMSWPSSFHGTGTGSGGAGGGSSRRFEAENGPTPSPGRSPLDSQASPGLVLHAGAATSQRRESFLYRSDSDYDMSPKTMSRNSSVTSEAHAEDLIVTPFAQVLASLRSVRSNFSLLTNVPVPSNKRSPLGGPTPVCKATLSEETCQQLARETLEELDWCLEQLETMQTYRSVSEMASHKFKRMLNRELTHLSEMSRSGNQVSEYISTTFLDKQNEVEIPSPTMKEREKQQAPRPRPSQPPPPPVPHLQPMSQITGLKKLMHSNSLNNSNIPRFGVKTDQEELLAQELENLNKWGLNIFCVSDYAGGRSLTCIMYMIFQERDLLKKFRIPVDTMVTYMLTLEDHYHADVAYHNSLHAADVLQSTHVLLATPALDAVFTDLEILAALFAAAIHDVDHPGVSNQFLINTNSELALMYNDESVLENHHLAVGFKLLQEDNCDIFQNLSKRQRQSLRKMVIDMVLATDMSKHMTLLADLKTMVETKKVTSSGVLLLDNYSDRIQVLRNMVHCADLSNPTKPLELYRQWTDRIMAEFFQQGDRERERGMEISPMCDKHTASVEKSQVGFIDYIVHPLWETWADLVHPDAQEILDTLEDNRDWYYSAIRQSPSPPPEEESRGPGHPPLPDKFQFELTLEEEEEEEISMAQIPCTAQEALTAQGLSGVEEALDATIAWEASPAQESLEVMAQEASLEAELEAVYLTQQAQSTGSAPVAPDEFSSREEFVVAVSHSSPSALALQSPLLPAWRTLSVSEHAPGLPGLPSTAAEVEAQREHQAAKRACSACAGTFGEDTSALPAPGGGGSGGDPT
# Progesterone receptor = target: T3, Progesterone receptor (Homo sapiens, UniProt P06401)
# T3 sequence (P06401 whole entry): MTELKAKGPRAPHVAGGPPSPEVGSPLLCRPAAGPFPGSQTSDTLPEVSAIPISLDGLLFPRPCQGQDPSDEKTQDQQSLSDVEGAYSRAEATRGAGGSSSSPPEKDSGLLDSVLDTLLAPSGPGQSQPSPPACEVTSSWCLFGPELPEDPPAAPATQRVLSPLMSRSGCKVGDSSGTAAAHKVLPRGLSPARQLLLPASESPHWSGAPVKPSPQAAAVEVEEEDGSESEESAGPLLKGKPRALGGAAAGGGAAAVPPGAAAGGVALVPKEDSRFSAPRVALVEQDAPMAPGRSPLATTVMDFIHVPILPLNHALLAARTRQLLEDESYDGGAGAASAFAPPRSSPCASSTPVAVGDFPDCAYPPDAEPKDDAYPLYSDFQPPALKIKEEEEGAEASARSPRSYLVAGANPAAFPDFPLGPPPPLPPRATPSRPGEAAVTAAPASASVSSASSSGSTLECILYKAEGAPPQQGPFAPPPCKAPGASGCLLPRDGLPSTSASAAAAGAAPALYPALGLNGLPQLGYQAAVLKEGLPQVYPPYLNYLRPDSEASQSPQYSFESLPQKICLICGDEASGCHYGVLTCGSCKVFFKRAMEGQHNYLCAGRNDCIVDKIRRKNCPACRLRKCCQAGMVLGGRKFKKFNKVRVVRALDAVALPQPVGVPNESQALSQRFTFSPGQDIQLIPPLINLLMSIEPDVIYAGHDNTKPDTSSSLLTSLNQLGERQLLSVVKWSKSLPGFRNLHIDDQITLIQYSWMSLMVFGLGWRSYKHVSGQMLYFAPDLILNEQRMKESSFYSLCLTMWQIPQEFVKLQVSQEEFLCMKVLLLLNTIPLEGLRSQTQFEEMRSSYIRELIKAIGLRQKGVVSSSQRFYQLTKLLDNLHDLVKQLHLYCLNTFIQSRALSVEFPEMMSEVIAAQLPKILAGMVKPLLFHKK
# Adenosine receptor A3 = target: T4, Adenosine receptor A3 (Homo sapiens, UniProt P0DMS8)
# T4 sequence (P0DMS8 whole entry): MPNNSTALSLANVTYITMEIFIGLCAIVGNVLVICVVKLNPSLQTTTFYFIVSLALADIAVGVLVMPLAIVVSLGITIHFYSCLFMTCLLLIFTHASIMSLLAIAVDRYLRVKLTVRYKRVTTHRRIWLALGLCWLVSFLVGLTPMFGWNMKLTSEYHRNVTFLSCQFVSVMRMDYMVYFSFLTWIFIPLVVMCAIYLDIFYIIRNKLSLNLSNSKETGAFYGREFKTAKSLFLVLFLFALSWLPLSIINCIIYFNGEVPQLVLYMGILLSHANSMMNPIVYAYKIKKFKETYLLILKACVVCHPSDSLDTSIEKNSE
# Also: assay procedure not described here.
# Chain of Voltage-dependent L-type calcium channel subunit alpha-1C (P22002 whole entry): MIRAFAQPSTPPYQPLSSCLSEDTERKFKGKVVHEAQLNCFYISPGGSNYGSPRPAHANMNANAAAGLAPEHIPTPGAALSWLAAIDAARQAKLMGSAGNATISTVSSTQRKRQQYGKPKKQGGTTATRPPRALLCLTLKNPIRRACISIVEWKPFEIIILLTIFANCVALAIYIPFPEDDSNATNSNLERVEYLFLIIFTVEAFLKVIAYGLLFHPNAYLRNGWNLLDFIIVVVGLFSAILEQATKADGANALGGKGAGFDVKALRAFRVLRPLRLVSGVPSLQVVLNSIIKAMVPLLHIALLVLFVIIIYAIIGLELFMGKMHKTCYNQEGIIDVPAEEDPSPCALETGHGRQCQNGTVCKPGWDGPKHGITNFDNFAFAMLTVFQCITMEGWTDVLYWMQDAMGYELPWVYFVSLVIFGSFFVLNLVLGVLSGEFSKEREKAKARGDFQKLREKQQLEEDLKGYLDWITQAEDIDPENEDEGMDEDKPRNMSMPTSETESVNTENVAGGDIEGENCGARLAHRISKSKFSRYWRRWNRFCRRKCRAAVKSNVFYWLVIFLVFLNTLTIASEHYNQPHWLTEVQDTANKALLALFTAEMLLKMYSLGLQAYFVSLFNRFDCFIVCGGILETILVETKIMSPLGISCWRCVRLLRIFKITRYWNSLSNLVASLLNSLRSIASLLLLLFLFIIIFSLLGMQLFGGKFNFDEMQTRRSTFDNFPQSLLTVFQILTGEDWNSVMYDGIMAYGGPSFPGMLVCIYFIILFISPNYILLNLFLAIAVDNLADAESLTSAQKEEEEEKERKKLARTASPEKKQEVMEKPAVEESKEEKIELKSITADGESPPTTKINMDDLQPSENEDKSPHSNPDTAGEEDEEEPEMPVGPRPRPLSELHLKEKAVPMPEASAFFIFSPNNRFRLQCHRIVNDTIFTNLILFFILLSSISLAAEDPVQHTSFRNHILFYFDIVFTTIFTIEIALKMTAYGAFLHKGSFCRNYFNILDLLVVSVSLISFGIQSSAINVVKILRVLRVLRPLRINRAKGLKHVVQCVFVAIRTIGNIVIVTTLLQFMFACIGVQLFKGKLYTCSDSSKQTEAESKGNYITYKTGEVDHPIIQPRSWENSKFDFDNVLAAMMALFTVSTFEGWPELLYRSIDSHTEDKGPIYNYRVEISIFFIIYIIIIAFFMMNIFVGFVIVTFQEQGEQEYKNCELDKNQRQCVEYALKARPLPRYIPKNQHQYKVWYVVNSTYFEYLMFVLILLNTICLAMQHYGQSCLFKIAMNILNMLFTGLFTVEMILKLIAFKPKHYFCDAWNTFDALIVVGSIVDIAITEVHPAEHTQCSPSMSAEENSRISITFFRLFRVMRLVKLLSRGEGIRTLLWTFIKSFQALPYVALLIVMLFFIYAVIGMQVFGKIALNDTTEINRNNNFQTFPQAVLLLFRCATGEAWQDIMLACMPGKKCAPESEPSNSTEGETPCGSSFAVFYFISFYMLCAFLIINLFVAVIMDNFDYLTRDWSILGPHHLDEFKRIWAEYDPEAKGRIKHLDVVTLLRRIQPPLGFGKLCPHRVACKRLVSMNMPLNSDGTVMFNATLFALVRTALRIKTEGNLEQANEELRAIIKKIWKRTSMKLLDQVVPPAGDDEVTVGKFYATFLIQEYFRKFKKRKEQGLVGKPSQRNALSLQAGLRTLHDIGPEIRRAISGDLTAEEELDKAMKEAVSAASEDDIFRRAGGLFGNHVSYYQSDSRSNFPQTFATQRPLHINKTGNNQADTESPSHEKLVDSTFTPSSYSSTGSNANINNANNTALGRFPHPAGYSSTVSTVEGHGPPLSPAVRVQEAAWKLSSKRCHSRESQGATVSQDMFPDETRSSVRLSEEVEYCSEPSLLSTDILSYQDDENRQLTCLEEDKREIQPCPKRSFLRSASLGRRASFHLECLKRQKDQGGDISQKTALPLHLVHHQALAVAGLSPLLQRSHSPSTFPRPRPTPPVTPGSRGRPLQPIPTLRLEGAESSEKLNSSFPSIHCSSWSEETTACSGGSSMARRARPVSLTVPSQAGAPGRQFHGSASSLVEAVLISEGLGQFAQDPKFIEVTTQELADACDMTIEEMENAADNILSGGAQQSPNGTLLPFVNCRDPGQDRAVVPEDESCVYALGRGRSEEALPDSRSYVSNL
Compound,AC50 [1] [µM],AC50 [2] [µM],AC50 [3] [µM],AC50 [4] [µM],AC50 [5] [µM],AC50 (Progesterone receptor) [µM],AC50 (Adenosine receptor A3) [µM]
CCCCN1C[C@H](O)[C@@H](O)[C@H](O)[C@H]1CO,> 30,> 30,> 30,> 30,,,
CN(C)CCC=C1c2ccccc2C(C)(C)c2ccccc21,,0.63,,,,,
CCOC(=O)[C@H](CCc1ccccc1)N[C@@H](C)C(=O)N1[C@H](C(=O)O)C[C@@H]2CCC[C@@H]21,> 10,> 30,> 10,> 30,,,
Nc1nc(NC2CC2)c2ncn([C@H]3C=C[C@@H](CO)C3)c2n1 [ABACAVIR],,> 30,> 30,> 30,,,
CC(=O)NCCCS(=O)(=O)O [ACAMPROSATE],,> 30,> 30,> 30,,,
CCCSc1ccc2nc(NC(=O)OC)[nH]c2c1 [ALBENDAZOLE],> 10,,> 10,> 10,,,
COc1cc2nc(N(C)CCCNC(=O)C3CCCO3)nc(N)c2cc1OC (configuration not stated) [ALFUZOSIN],> 30,,> 30,> 30,,,
CNC(=O)c1ccccc1Sc1ccc2c(/C=C/c3ccccn3)n[nH]c2c1 [AXITINIB],,> 30,,,,,
CC[C@H]1OC(=O)[C@H](C)[C@@H](O[C@H]2C[C@@](C)(OC)[C@@H](O)[C@H](C)O2)[C@H](C)[C@@H](O[C@@H]2O[C@H](C)C[C@H](N(C)C)[C@H]2O)[C@](C)(O)C[C@@H](C)CN(C)[C@H](C)[C@@H](O)[C@]1(C)O [AZITHROMYCIN],> 10,> 30,> 30,> 30,> 30,> 30,
CCc1oc2ccccc2c1C(=O)c1cc(I)c(O)c(I)c1 [BENZIODARONE],,,,,2.37,4.27,
Cc1ccc(-c2cc(C(F)(F)F)nn2-c2ccc(S(N)(=O)=O)cc2)cc1 [CELECOXIB],> 10,,> 10,> 10,,,
CC1=C(C(=O)O)N2C(=O)[C@@H](NC(=O)[C@H](N)c3ccccc3)[C@H]2SC1 [CEPHALEXIN ANHYDROUS],> 10,> 30,> 10,> 30,,,
COCc1c(C(C)C)nc(C(C)C)c(/C=C/[C@@H](O)C[C@@H](O)CC(=O)O)c1-c1ccc(F)cc1 [CERIVASTATIN],,,,,21.5,> 30,> 30
CN1C(=O)CCS(=O)(=O)C1c1ccc(Cl)cc1 (configuration not stated) [CHLORMEZANONE],> 10,,> 10,> 10,,,
CN(C)CCC(c1ccc(Cl)cc1)c1ccccn1 (configuration not stated) [CHLORPHENIRAMINE],> 10,> 30,> 10,> 30,,,
C[N+](C)(C)CCO [CHOLINE],,,,,> 30,> 30,> 30
CN(C)/N=N/c1[nH]cnc1C(N)=O [DACARBAZINE],> 10,,> 10,> 10,,,
O=C1Nc2ccc(Cl)cc2[C@@](C#CC2CC2)(C(F)(F)F)O1 [EFAVIRENZ],18.8,> 30,> 10,> 30,,,
C[N+]1(C)CCC(OC(=O)C(O)(c2ccccc2)C2CCCC2)C1 (configuration not stated) [GLYCOPYRRONIUM BROMIDE],,,,,> 30,> 30,
C[C@]12CCC(=O)C=C1CC[C@@H]1[C@@H]2[C@@H](O)C[C@@]2(C)[C@H]1CC[C@]2(O)C(=O)CO [HYDROCORTISONE],> 10,> 30,> 10,> 30,,,
O=P1(NCCCl)OCCCN1CCCl (configuration not stated) [IFOSFAMIDE],> 30,,> 30,> 30,,,

Compound,AC50 [1] [µM],AC50 [2] [µM],AC50 [3] [µM],AC50 [4] [µM],AC50 [5] [µM],AC50 (Progesterone receptor) [µM],AC50 (Adenosine receptor A3) [µM]
CCC(C)n1ncn(-c2ccc(N3CCN(c4ccc(OCC5COC(Cn6cncn6)(c6ccc(Cl)cc6Cl)O5)cc4)CC3)cc2)c1=O (configuration not stated) [ITRACONAZOLE],> 30,> 30,> 30,> 30,,,
c1ccc([C@H]2CN3CCSC3=N2)cc1 [LEVAMISOLE],> 30,> 30,> 30,,,,
C[C@H]1CNCCc2ccc(Cl)cc21 [LORCASERIN],,> 30,,,,,
CN1C(C(=O)Nc2ccccn2)=C(O)c2sc(Cl)cc2S1(=O)=O [LORNOXICAM],> 10,> 30,> 10,> 30,,,
C[C@@H](O)[C@H]1C(=O)N2C(C(=O)O)=C(S[C@@H]3CN[C@H](C(=O)N(C)C)C3)[C@H](C)[C@H]12 [MEROPENEM],> 10,> 300,> 10,> 10,,,
CNC1Cc2ccccc2N(C)c2ccccc21 (configuration not stated) [METAPRAMINE],,3.4,,,,,
Clc1ccc(C(c2ccccc2Cl)C(Cl)Cl)cc1 (configuration not stated) [MITOTANE],> 10,,> 10,> 10,,,
Cc1nc([N+](=O)[O-])cn1-c1ccc([N+](=O)[O-])cc1 [NITREFAZOLE],,> 30,> 30,> 30,,,
COc1ccc(CC(C)(C)NC[C@H](O)c2cc(O)cc3c2OCC(=O)N3)cc1 [OLODATEROL],,0.055,,,,,
CCCN1C[C@H](CSC)C[C@@H]2c3cccc4[nH]cc(c34)C[C@H]21 [PERGOLIDE],> 10,,> 10,> 30,,,
C1CCC(C(CC2CCCCN2)C2CCCCC2)CC1 (configuration not stated) [PERHEXILINE],,> 10,,,,,
c1cnc(N2CCN(Cc3ccc4c(c3)OCO4)CC2)nc1 [PIRIBEDIL],,23,,,,,
COc1ccccc1OCC(O)CN1CCN(CC(=O)Nc2c(C)cccc2C)CC1 (configuration not stated) [RANOLAZINE],> 30,1.7,> 30,> 30,,,
Cc1c(C(=O)NN2CCCCC2)nn(-c2ccc(Cl)cc2Cl)c1-c1ccc(Cl)cc1 [RIMONABANT],3.19,11,> 10,> 30,,,
Cn1nnc2c(C(N)=O)ncn2c1=O [TEMOZOLOMIDE],> 10,> 30,> 10,> 30,,,
Clc1ccc2nsnc2c1NC1=NCCN1 [TIZANIDINE],> 10,,> 10,> 30,,,
O=C(O[C@H]1C[C@H]2CC[C@@H](C1)[N+]21CCCC1)C(O)(c1ccccc1)c1ccccc1 [TROSPIUM],> 30,> 30,> 30,> 30,,,
N[C@@H]1[C@H]2CN(c3nc4c(cc3F)c(=O)c(C(=O)O)cn4-c3ccc(F)cc3F)C[C@@H]12 [TROVAFLOXACIN],,> 30,,,,,
Nc1ccn([C@H]2CC[C@@H](CO)O2)c(=O)n1 [ZALCITABINE],> 10,> 30,> 10,> 10,,,
NS(=O)(=O)Cc1noc2ccccc12 [ZONISAMIDE],> 10,,> 10,> 10,,,
